Reference: patent US7417048B2, “Aryl-substituted derivatives of cycloalkyl and branched chain alkyl carboxylic acids useful as antinociceptive drugs for peripheral targets” (priority 2003, dated 2008)

Assays:
TRP-A1 = TRP-A1 (Homo sapiens, UniProt O75762); test: TRP-A1 activation; type: cell-based
[1] = tested on: lips and nasal mucous membranes; test: Cooling effect of suspension applied to lips and nasal mucous membranes; type: in vivo, human; settings: for cooling effect on the lips and on breathing sensation: 20 mg/ml suspension in saline-10% Tween 80, lips and nasal mucous membranes
Source text: Sulfadiazine is used as antibiotic for urinary tract infections and its silver salt is also used a topical antibiotic for the treatment of burn wounds. One peripheral antinociceptive compound of this discovery is derived from sulfadiazine as the -ZR″ group, and has the structure illustrated by Formula 3. […] The embodiment, coded as CPS-125, also activated the TRP-M8 coolness receptor, but not TRP-A1. […] Sulfonamides are used as topical and systemic antibiotics. Generally, these drugs are used at doses of 500 mg to gram quantities, and have relatively low toxic side effects except for the risks of renal crystalluria and drug hypersensitivity reactions. […] (St. Louis, Mo.) and coupled to p-menthoyl chloride, using the chemical synthesis described above. Each compound was then tested at 20 mg/ml on the lips and nasal mucous membranes. The compounds were added to sterile saline-10% Tween 80 mixture and stirred using a glass rod until the mixture was a homogeneous suspension. Using a clean glass rod, the suspension was first applied to the lips and nasal vestibule. After this trial, a dropper was used to apply the suspension into the nostrils, at a volume of 0.06 ml in 2 droplets per nostril.

human TRP-M8 receptor = molecular target: T1, human TRP-M8 receptor (Homo sapiens, UniProt Q7Z2W7); test: Fura-2 calcium fluorescence in HEK cells permanently transfected with human TRP-M8; type: cell-based
T1 construct: expressed in transfected cells; host or cells: human embryonic kidney cells (permanent transfection)
T1 sequence (Q7Z2W7 whole entry): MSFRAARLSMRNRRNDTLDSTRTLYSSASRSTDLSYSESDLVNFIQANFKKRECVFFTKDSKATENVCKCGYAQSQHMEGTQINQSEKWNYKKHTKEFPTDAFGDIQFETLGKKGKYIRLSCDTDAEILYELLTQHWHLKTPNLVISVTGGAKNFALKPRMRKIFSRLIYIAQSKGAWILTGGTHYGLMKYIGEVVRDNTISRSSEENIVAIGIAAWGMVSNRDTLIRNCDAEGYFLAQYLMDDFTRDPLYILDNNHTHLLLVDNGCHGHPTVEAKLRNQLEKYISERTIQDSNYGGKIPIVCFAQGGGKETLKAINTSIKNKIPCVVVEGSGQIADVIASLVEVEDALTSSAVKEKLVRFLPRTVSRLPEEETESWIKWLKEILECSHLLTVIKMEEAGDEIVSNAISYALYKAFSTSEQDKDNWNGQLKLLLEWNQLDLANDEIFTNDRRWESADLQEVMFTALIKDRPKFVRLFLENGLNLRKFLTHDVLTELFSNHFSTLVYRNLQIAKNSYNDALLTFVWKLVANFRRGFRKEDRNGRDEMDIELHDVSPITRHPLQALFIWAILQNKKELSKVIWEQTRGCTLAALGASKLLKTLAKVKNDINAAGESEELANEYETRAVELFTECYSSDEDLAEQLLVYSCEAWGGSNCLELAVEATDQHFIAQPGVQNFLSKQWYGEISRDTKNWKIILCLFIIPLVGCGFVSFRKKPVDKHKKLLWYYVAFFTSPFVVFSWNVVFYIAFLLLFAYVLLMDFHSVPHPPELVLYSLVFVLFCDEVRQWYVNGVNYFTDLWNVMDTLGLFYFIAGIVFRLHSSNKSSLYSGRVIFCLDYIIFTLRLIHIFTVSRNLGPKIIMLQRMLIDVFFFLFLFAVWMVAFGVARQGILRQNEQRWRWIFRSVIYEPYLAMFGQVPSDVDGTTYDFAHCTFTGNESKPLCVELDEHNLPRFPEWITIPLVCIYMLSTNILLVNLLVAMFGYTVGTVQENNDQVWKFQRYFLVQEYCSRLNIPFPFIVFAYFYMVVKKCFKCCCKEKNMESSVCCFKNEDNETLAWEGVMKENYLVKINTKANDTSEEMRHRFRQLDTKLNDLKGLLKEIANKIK
Experimental: (§1) Human embryonic kidney cells were permanently transfected with the gene for the human TRP-M8 receptor. These cells were then incubated with a calcium fluorescence indicator (Fura-2) and incubated at either 29 or 37° C. These cells were then distributed into a 96-well fluorescence-plate image reader with automated drug dilution and computerized software for dose-response analysis. The influx of calcium upon drug stimulated was quantified in fluorescence units.

TRP-M8 coolness receptor = TRP-M8 coolness receptor (Homo sapiens, UniProt Q7Z2W7); test: TRP-M8 coolness receptor activation (summary statement); type: cell-based
Sequence of TRP-M8 coolness receptor (Q7Z2W7 whole entry): as above
Experimental: (§2) Human embryonic kidney cells were transiently transfected with the gene for the mouse TRP-M8 receptor. These cells were then voltage patch-clamped in a standard microscopic apparatus and the test solution electronically applied for 10 sec. The integrated areas of the inward current, measured in picoAmperes were then recorded. Icilin a standard cooling antinociceptive agent was used the positive control. Test substances were applied at 1 μM to at least 4 cells and the current recorded.
as §1, with “units. […] The EC50 of CPS-125 in this test system was 6 μM and for the sulfodimethoxinyl- derivative, it was 60 μM.” for “units.”

mouse TRP-M8 receptor = molecular target: T2, mouse TRP-M8 receptor (Mus musculus, UniProt Q8R4D5); test: Voltage patch-clamp of HEK cells transiently transfected with mouse TRP-M8; type: cell-based; settings: for activity relative to icilin (integrated inward current, icilin as 100): 1 μM, applied 10 sec, at least 4 cells
T2 construct: expressed in transfected cells; host or cells: human embryonic kidney cells (transient transfection)
T2 sequence (Q8R4D5 whole entry): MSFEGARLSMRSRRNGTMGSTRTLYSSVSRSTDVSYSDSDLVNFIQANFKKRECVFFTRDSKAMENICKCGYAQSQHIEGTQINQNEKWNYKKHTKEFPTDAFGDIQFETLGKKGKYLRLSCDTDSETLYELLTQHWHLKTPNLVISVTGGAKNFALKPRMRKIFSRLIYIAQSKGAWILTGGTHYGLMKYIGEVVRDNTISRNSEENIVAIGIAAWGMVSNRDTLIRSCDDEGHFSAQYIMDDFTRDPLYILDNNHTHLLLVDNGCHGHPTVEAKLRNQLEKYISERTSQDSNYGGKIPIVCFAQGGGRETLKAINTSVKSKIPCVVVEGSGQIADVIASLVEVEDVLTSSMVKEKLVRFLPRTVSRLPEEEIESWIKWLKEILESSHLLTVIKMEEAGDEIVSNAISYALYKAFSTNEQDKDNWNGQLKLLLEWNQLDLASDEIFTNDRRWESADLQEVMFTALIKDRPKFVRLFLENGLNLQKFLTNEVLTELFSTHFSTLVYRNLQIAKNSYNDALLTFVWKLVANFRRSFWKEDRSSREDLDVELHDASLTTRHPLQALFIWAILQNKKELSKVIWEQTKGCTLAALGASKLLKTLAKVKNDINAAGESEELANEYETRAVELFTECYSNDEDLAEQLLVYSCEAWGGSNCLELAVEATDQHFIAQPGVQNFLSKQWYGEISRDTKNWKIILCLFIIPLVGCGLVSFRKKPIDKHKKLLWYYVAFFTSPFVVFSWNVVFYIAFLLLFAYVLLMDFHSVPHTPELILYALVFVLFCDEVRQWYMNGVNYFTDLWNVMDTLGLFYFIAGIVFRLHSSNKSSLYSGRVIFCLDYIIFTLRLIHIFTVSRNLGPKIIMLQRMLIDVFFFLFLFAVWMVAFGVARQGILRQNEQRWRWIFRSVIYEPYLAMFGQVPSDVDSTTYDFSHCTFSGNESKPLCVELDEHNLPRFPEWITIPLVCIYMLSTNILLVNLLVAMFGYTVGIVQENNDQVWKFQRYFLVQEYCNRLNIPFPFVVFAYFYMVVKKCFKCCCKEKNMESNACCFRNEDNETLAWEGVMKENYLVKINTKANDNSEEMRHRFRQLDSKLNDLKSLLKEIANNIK
Experimental: as §2

[2] = Threshold cooling effect of p-menthane carboxylic acid esters; type: in vivo, human; settings: p-menthane-COOR esters
Source text: Neurophysiological and Molecular Mechanisms of Drug Action. The procedures described previously are used in drug screening. Experimentally there are additional methods to identify peripheral antinociceptive pharmacophore-compounds on sensory nerve endings. TRP receptors are present in sensory neurons. At the molecular level, the interactions of these peripheral antinociceptive pharmacophore-compounds with various TRP receptors can be characterized. The methods for such receptor studies were described by Laus et al. (Prostate tumor nucleotide compositions and methods of detection thereof. U.S. Pat. No. 6,194,152 B1, Feb. 27, 2001), and by Bevan et al. (Vanilloid receptor-related nucleic acids and polypeptides. U.S. 2003/0157633 A1, Aug. 21, 2003) and Julius et al. (Methods of modulating cold sensory perception. U.S. 2003/0219834 A1, Nov. 27, 2003), herein incorporated by reference. In the patent by Laus et al. it is noted that activation of trp-p8 by specific agonists of this receptor may also be utilized for the treatment of prostate disorders such prostate neoplasia. The use of peripheral antinociceptive pharmacophore-compounds of this discovery for prostate disorders is also contemplated in the present patent application. Identification of Pharmacophore. […] Based on this information, the pharmacophore precursor was selected and then the -ZR″ moiety was placed on the molecule to form the peripheral antinociceptive pharmacophore compounds of this discovery with desired pharmacokinetics and adequate delivery of pharmacophore to the target.

[3] = cited from earlier work

Sequence of TRP-A1 (O75762 whole entry, species assumed): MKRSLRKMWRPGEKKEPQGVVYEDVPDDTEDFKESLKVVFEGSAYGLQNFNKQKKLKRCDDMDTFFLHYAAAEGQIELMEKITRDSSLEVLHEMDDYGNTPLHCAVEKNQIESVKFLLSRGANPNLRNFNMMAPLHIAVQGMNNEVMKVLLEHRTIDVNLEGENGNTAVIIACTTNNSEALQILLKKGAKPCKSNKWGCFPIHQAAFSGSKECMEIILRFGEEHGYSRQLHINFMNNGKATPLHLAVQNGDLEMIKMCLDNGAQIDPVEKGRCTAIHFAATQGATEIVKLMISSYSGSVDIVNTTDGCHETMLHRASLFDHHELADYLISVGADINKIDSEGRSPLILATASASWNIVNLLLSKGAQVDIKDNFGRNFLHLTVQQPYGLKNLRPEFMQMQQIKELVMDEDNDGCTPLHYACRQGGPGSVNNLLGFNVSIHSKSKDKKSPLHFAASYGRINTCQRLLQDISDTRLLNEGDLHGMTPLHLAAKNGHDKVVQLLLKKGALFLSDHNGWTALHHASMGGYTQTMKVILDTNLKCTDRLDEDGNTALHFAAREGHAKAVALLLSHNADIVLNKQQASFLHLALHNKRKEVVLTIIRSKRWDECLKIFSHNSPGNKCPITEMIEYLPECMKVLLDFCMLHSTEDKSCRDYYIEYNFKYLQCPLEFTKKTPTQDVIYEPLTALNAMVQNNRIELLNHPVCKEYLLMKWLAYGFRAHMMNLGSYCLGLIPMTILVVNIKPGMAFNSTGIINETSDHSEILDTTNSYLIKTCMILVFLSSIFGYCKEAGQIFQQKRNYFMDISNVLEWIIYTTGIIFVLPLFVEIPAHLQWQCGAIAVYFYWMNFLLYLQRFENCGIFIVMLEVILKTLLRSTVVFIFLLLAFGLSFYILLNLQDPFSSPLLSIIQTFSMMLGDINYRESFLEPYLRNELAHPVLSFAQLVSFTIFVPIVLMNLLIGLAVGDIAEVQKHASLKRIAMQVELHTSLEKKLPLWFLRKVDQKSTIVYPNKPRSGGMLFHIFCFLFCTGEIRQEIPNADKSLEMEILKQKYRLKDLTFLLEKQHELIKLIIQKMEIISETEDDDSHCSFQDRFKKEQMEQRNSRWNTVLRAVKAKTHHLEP

CC1CCC(C(C)C)C(C(=O)Nc2ccc(S(=O)(=O)Nc3ncccn3)cc2)C1 (centres unmarked) [CPS-125, 2-Isopropyl-5-methyl-cyclohexanecarboxylic acid [4-(pyrimidin-2-ylsulfamoyl)-phenyl]-amide]
activation of TRP-A1 (TRP-A1): not
duration of cooling effect ([1]; 1 mg per nostril, 0.06 ml in 2 droplets per nostril): up to 3 hr
cooling effect on the lips and on breathing sensation [1]: gentle, cooling refreshing effect
ΔFmax (maximum fluorescence increase at the maximum concentration tested) (human TRP-M8 receptor; Fura-2 fluorescence units): 14,000 units
activation of TRP-M8 coolness receptor (TRP-M8 coolness receptor): activated
activity relative to icilin (integrated inward current, icilin as 100) (mouse TRP-M8 receptor): 41%
EC50 (mouse TRP-M8 receptor; patch-clamp dose-response, read-out: EC50 for full activation of the receptor): 2 µM

CC(O)C(C)O (centres unmarked) [butan-2,3-diol]
Threshold Cooling Effect [2]: 3 µg

OC1CCCCC1O (centres unmarked) [cyclohexan-1,2-diol]
Threshold Cooling Effect [2]: 4 µg

CC(C)(O)C(=O)O [2-hydroxy-2-methylpropanoic acid]
Threshold Cooling Effect [2]: 20 µg

COc1ccc(NS(=O)(=O)c2ccc(NC(=O)C3CC(C)CCC3C(C)C)cc2)nn1 (centres unmarked) [sulfamethoxypyridazine analog]
cooling effect on the lips and on breathing sensation [1]: moderate activities

OCCOCCO [diethylene glycol]
Threshold Cooling Effect [2]: 1 µg

COc1cc(NS(=O)(=O)c2ccc(NC(=O)C3CC(C)CCC3C(C)C)cc2)nc(OC)n1 (centres unmarked) [sulfadimethoxine analog]
cooling effect on the lips and on breathing sensation [1]: slightly active
EC50 (human TRP-M8 receptor; Fura-2, 29 or 37° C., 96-well plate reader, read-out: EC50 (median effective concentration, calcium influx)): 60 µM

Nc1ccc(S(=O)(=O)Nc2nncs2)cc1 [S-1,3,4-thiadiazole]
pKa [3]: 4.77

OCCO [ethylene glycol]
Threshold Cooling Effect [2]: 1.5 µg

CC(O)CO (centres unmarked) [propylene glycol]
Threshold Cooling Effect [2]: 1.4 µg

OCC(O)CO [glycerol]
Threshold Cooling Effect [2]: 1.2 µg

Nc1ccc(S(=O)(=O)NC(=O)CCl)cc1 [N1-chloroacetylsulfanilamide]
pKa [3]: 3.79

CC(O)C(=O)O (centres unmarked) [lactic acid]
Threshold Cooling Effect [2]: 8 µg

OCC#CCO [butyn-1,4-diol]
Threshold Cooling Effect [2]: 6 µg

Nc1ccc(C(=O)NS(=O)(=O)c2ccc(N)cc2)cc1 [N1-p-aminobenzoylsulfanilamide]
pKa [3]: 5.20

COc1cnc(NS(=O)(=O)c2ccc(NC(=O)C3CC(C)CCC3C(C)C)cc2)nc1 (centres unmarked) [sulfameter analog]
cooling effect on the lips and on breathing sensation [1]: moderate activities

Nc1ccc(S(=O)(=O)Nc2ccccn2)cc1 [sulfapyridine]
pKa [3]: 8.43

CC1CCC(C(C)C)C(C(=O)Nc2ccc(S(N)(=O)=O)cc2)C1 (centres unmarked) [CPS-126]
cooling effect on the lips and on breathing sensation [1]: inactive
activity relative to icilin (integrated inward current, icilin as 100) (mouse TRP-M8 receptor): 2%

CCOC(=O)C(C)O (centres unmarked) [ethyl lactate]
Threshold Cooling Effect [2]: 50 µg

CC(=O)OCCOC(=O)C1CC(C)CCC1C(C)C (centres unmarked) [2-acetoxoyethanol]
Threshold Cooling Effect [2]: 33 µg

Nc1ccc(S(=O)(=O)Nc2nccs2)cc1 [sulfathiazole]
pKa [3]: 7.12

CC1CCC(C(C)C)C(C(=O)OCC(=O)O)C1 (centres unmarked) [glycollic acid]
Threshold Cooling Effect [2]: 15 µg

OCCCCO [butan-1,4-diol]
Threshold Cooling Effect [2]: 12 µg

OCCOCCOCCO [triethylene glycol]
Threshold Cooling Effect [2]: 5 µg

OCCCO [propan-1,3-diol]
Threshold Cooling Effect [2]: 7 µg

hexylene glycol
Threshold Cooling Effect [2]: 8 µg

Cc1cc(O)cc(O)c1 [3,5-dihydroxytoluene]
Threshold Cooling Effect [2]: 15 µg

OC[C@@H](O)[C@@H](O)[C@H](O)[C@@H](O)CO [sorbitol]
Threshold Cooling Effect [2]: 50 µg

Cc1noc(NS(=O)(=O)c2ccc(NC(=O)C3CC(C)CCC3C(C)C)cc2)c1C (centres unmarked) [sulfisoxazole analog]
cooling effect on the lips and on breathing sensation [1]: slightly active

CC1(C)OCC(CO)O1 (centres unmarked)
Threshold Cooling Effect [2]: 11 µg
